Structures are written as SMILES. Structures can show the parent of a compound that is named as a salt.

In the assay the target is IRAK4 (Homo sapiens (Human), UniProt Q9NWZ3). The assay can be described thus: IRAK4 Kinase Assay (IMAP fluorescence polarization). It is filed as biochemical. As to conditions: 0.5 nM GST tagged IRAK4, 100 μM ATP, 30 minutes at 25° C., IMAP FP. The protocol: The kinase activity of IRAK4 is determined by its ability to catalyze the phosphorylation of a fluorescent polypeptide substrate. The extent of phosphorylation is measured using the IMAP technology (Molecular Devices) where the phosphorylated fluorescent substrate binds to the large M (III)-based nanoparticles which reduces the rotational speed of the substrate and thus increases its fluorescent polarization (FP).
20 μL reaction mixture contains 10 mM TriHCl, pH 7.2, 0.5 nM GST tagged IRAK4 (SignalChem), 100 nM fluorescent peptide substrate (RP7030, Molecular Devices), 100 μM ATP, 1 mM DDT, 1 mM MgCl2, and 0.01% Tween 20. The reaction is initiated by the addition of ATP. After incubation for 30 minutes at 25° C., 60 μL of Progressive IMAP Reagent (Molecular Devices) is added to stop the reaction. Change in RP7030's FP is determined by a FP reader (Analyst HT, LJL BioSystems).
(In general: Fluorescence polarisation rises when a labelled molecule tumbles more slowly, as on binding a larger partner.)

Sequence of IRAK4 (Q9NWZ3 whole entry): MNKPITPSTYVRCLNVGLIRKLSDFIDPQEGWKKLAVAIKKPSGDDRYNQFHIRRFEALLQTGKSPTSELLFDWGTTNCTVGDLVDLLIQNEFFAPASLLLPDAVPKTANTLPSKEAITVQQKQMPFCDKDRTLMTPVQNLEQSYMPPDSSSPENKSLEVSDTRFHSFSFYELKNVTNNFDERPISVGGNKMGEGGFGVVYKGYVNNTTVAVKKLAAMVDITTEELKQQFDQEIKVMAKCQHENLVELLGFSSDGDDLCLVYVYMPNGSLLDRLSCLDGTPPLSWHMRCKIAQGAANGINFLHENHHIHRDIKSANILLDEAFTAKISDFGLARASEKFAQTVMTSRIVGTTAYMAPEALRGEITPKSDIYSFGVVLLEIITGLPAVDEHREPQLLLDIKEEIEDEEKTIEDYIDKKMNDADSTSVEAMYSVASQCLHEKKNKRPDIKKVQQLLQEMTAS

The compound `Cn1cc(NC(=O)c2ccc3ccc(N[C@@H]4CCCC(F)(F)[C@@H]4N)nn23)c(C(F)F)n1` [Example 28, 2-{[(1R,2R)-2-amino-3,3-difluorocyclohexyl]amino}-N-[3-(difluoromethyl)-1-methyl-1H-pyrazol-4-yl]pyrrolo[1,2-b]pyridazine-7-carboxamide trifluoroacetate] had an IC50 of 34 nM.

For `Cn1cc(NC(=O)c2ccc3ccc(N4C[C@H]5CC[C@@H]4CN5)nn23)c(C#N)n1` (single isomer, unassigned) [Example 44, N-(3-cyano-1-methyl-1H-pyrazol-4-yl)-2-[(1S,4S)- or (1R,4R)-2,5-diazabicyclo[2.2.2]oct-2-yl]pyrrolo[1,2-b]pyridazine-7-carboxamide trifluoroacetate], the IC50 was 50 nM.

Regarding `Cn1cc(NC(=O)c2ccc3ccc(N4C[C@@H]5CC[C@H]4CN5)nn23)c(C(F)F)n1` (single isomer, unassigned) [Example 37, 2-[(1S,4S)- or (1R,4R)-2,5-diazabicyclo[2.2.2]oct-2-yl]-N-[3-(difluoromethyl)-1-methyl-1H-pyrazol-4-yl]pyrrolo[1,2-b]pyridazine-7-carboxamide trifluoroacetate], it took 3 nM to reach half-maximal inhibition (IC50).

Take `N#Cc1sccc1NC(=O)c1ccc2ccc(N[C@@H]3CCCC[C@@H]3N)nn12` [Example 75, 2-{[(1R,2S)-2-aminocyclohexyl]amino}-N-(2-cyanothiophen-3-yl)pyrrolo[1,2-b]pyridazine-7-carboxamide trifluoroacetate]: the IC50 is 2 nM.

`N[C@@H]1[C@H](Nc2ccc3ccc(C(=O)Nc4ccccc4Br)n3n2)CCCC1(F)F` [Example 94, 2-{[(1R,2R)-2-amino-3,3-difluoro-cyclohexyl]amino}-N-(2-bromophenyl)pyrrolo[1,2-b]pyridazine-7-carboxamide trifluoroacetate]: it took 5630 nM to reach half-maximal inhibition (IC50). Compared with the last compound, the IC50 is about 2800-fold higher.

Take `Cn1cc(NC(=O)c2ccc3ccc(N[C@@H]4CCCC[C@@H]4N)nn23)c(Br)n1` [Example 22, 2-{[(1R,2S)-2-amino-cyclohexyl]amino}-N-(3-bromo-1-methyl-1H-pyrazol-4-yl)pyrrolo[1,2-b]pyridazine-7-carboxamide trifluoroacetate]: the IC50 amounted to 2 nM. This IC50 lies about 2800-fold lower than the previous one.

Turning to `Cn1cc(NC(=O)c2ccc3ccc(N4CC5CCC4CN5)nn23)c(C(F)(F)F)n1` (stereo not shown) [Example 11, 2-(2,5-diazabicyclo[2.2.2]oct-2-yl)-N-[1-methyl-3-(trifluoromethyl)-1H-pyrazol-4-yl]pyrrolo[1,2-b]pyridazine-7-carboxamide], inhibition was half-maximal at 27 nM (IC50).

`Cn1cc(NC(=O)c2ccc3ccc(N[C@@H]4CCCC(F)(F)[C@@H]4N)nn23)c(C#N)n1` [Example 52, 2-{[(1R,2R)-2-amino-3,3-difluoro-cyclohexyl]amino}-N-(3-cyano-1-methyl-1H-pyrazol-4-yl)pyrrolo[1,2-b]pyridazine-7-carboxamide trifluoroacetate]: the IC50 worked out at 43 nM.

As to `N[C@@H]1[C@H](Nc2ccc3ccc(C(=O)Nc4ccccc4C(F)F)n3n2)CCCC1(F)F` [Example 118, 2-{[(1R,2R)-2-amino-3,3-difluorocyclohexyl]amino}-N-[2-(difluoromethyl)phenyl]pyrrolo[1,2-b]pyridazine-7-carboxamide trifluoroacetate], the IC50 worked out at 7390 nM. Compared with the last compound, the IC50 is about 170-fold higher.

In the case of `N#Cc1sccc1NC(=O)c1ccc2ccc(N3C[C@@H]4CC[C@H]3CN4)nn12` (single isomer, unassigned) [Example 80, N-(2-cyanothiophen-3-yl)-2-[(1S,4S)- or (1R,4R)-2,5-diazabicyclo[2.2.2]oct-2-yl]pyrrolo[1,2-b]pyridazine-7-carboxamide formate], the IC50 was found to be 103 nM.

The compound `N#Cc1sccc1NC(=O)c1ccc2ccc(N[C@@H]3CCCC[C@@H]3O)nn12` [Example 97, N-(2-cyanothiophen-3-yl)-2-{[(1R,2S)-2-hydroxycyclohexyl]amino}pyrrolo[1,2-b]pyridazine-7-carboxamide trifluoroacetate] returned an IC50 of 1370 nM.

Take `N#Cc1cscc1NC(=O)c1ccc2ccc(N[C@@H]3CCCC[C@@H]3N)nn12` [Example 73, 2-{[(1R,2S)-2-aminocyclohexyl]amino}-N-(4-cyanothiophen-3-yl)pyrrolo[1,2-b]pyridazine-7-carboxamide trifluoroacetate]: the concentration for half-maximal inhibition (IC50) is 3 nM.

The compound `O=C(Nc1cscc1Br)c1ccc2ccc(N3CC4CCC3CN4)nn12` (stereo not shown) [Example 62, N-(4-bromothiophen-3-yl)-2-(2,5-diazabicyclo[2.2.2]oct-2-yl)pyrrolo[1,2-b]pyridazine-7-carboxamide trifluoroacetate] returned an IC50 of 415 nM. This IC50 lies about 140-fold higher than the previous one.

As for `N#Cc1cscc1NC(=O)c1ccc2ccc(N[C@@H]3CCCC(F)(F)[C@@H]3N)nn12` [Example 89, 2-{[(1R,2R)-2-amino-3,3-difluoro-cyclohexyl]amino}-N-(4-cyanothiophen-3-yl)pyrrolo[1,2-b]pyridazine-7-carboxamide trifluoroacetate], the IC50 is 342 nM.

Take `N#Cc1ccccc1NC(=O)c1ccc2ccc(N[C@@H]3CCCC[C@@H]3N)nn12` [Example 106, 2-{[(1R,2S)-2-aminocyclohexyl]amino}-N-(2-cyanophenyl)pyrrolo [1,2-b]pyridazine-7-carboxamide trifluoroacetate]: half-maximal inhibition (IC50) required 6 nM.

Take `Cn1cc(NC(=O)c2ccc3ccc(N4CC5CCC4CN5)nn23)c(C(F)(F)F)n1` (stereo not shown) [Example 8, 2-(2,5-diazabicyclo[2.2.2]oct-2-yl)-N-[1-methyl-3-(trifluoromethyl)-1H-pyrazol-4-yl]pyrrolo[1,2-b]pyridazine-7-carboxamide]: inhibition was half-maximal at 19 nM (IC50).

Consider `Cn1cc(NC(=O)c2ccc3ccc(N4CCNCC4)nn23)c(C(F)(F)F)n1` [Example 99, N-(1-Methyl-3-(trifluoromethyl)-1H-pyrazol-4-yl)-2-(piperazin-1-yl)pyrrolo[1,2-b]pyridazine-7-carboxamide], for which the midpoint of inhibition, the IC50, lay at 63 nM.

Turning to `Cn1cc(NC(=O)c2ccc3ccc(N[C@H]4CCCCNC4)nn23)c(C(F)(F)F)n1` (single isomer, unassigned) [Example 40, 2-[(3R)- or (3S)-azepan-3-ylamino]-N-[1-methyl-3-(trifluoromethyl)-1H-pyrazol-4-yl]pyrrolo[1,2-b]pyridazine-7-carboxamide trifluoroacetate], the IC50 is 2 nM.

On to `O=C(Nc1ccccc1Cl)c1ccc2ccc(N3CC4CCC3CN4)nn12` (stereo not shown) [Example 64, N-(2-chlorophenyl)-2-(2,5-diazabicyclo[2.2.2]oct-2-yl)pyrrolo[1,2-b]pyridazine-7-carboxamide trifluoroacetate], for which the midpoint of inhibition, the IC50, lay at 611 nM.

Compound `N[C@H]1CCCC[C@H]1Nc1ccc2ccc(C(=O)Nc3cscc3Cl)n2n1` [Example 85, 2-{[(1R,2S)-2-aminocyclohexyl]amino}-N-(4-chlorothiophen-3-yl)pyrrolo[1,2-b]pyridazine-7-carboxamide trifluoroacetate] yielded an IC50 of 2 nM.

Regarding `Cn1cc(NC(=O)c2ccc3ccc(N4CCCNCC4)nn23)c(C(F)F)n1` [Example 15, 2-(1,4-diazepan-1-yl)-N-[3-(difluoromethyl)-1-methyl-1H-pyrazol-4-yl]pyrrolo[1,2-b]pyridazine-7-carboxamide trifluoroacetate], 2 nM corresponded to half-maximal inhibition (IC50).

As to `Cn1cc(NC(=O)c2ccc3ccc(N4C[C@@H]5CN[C@@H](C5)C4)nn23)c(C(F)F)n1` (single isomer, unassigned) [Example 51, 2-[(1S,5S)- or (1R,5R)-3,6-diazabicyclo[3.2.1]oct-3-yl]-N-[3-(difluoromethyl)-1-methyl-1H-pyrazol-4-yl]pyrrolo[1,2-b]pyridazine-7-carboxamide], 12 nM corresponded to half-maximal inhibition (IC50).

`O=C(Nc1ccsc1Br)c1ccc2ccc(N3CCCNCC3)nn12` [Example 76, N-(2-bromothiophen-3-yl)-2-(1,4-diazepan-1-yl)pyrrolo[1,2-b]pyridazine-7-carboxamide trifluoroacetate] came in with an IC50 of 1320 nM.

`N#Cc1ccccc1NC(=O)c1ccc2ccc(N[C@H]3CCCCNC3)nn12` (single isomer, unassigned) [Example 109, 2-[(3R)- or (3S)-azepan-3-ylamino]-N-(2-cyanophenyl)pyrrolo [1,2-b]pyridazine-7-carboxamide trifluoroacetate] displayed an IC50 of 7 nM. This IC50 is about 190-fold lower than that of the compound before.

Regarding `N#Cc1cscc1NC(=O)c1ccc2ccc(N3CCCNCC3)nn12` [Example 68, N-(4-cyanothiophen-3-yl)-2-(1,4-diazepan-1-yl)pyrrolo[1,2-b]pyridazine-7-carboxamide trifluoroacetate], inhibition was half-maximal at 190 nM (IC50).

In the case of `Cn1cc(NC(=O)c2ccc3ccc(N4C[C@H]5CNC[C@@H]4C5)nn23)c(C(F)(F)F)n1` [Example 123, 2-[(1S,5R)-(1R,5S)-3,6-diazabicyclo[3.2.1]oct-6-yl]-N-[1-methyl-3-(trifluoromethyl)-1H-pyrazol-4-yl]pyrrolo[1,2-b]pyridazine-7-carboxamide], the IC50 was 114 nM. Compared with the last compound, the IC50 is about 1.7-fold lower.

The compound `Cn1cc(NC(=O)c2ccc3ccc(N[C@@H]4CCCC[C@@H]4N)nn23)c(C(F)F)n1` [Example 19, 2-{[(1R,2S)-2-aminocyclo-hexyl]amino}-N-[3-(difluoromethyl)-1-methyl-1H-pyrazol-4-yl]pyrrolo[1,2-b]pyridazine-7-carboxamide trifluoroacetate] had an IC50 of 1 nM.

`Cn1cc(NC(=O)c2ccc3ccc(N4C[C@@H]5CN[C@@H](C5)C4)nn23)c(C(F)F)n1` (single isomer, unassigned) [Example 50, 2-[(1S,5S)- or (1R,5R)-3,6-diazabicyclo[3.2.1]oct-3-yl]-N-[3-(difluoromethyl)-1-methyl-1H-pyrazol-4-yl]pyrrolo[1,2-b]pyridazine-7-carboxamide] registered an IC50 of 4 nM.

What is called IC50 is the midpoint of a concentration-inhibition curve.

The values above are taken from patent US10040798B2, “Pyrrolopyridazine inhibitors of IRAK4 activity” (MERCK SHARP & DOHME CORP., priority 2015, dated 2018).
